Reference: article PMC9228089, “1,5-Benzothiazepine Derivatives: Green Synthesis, In Silico and In Vitro Evaluation as Anticancer Agents” (Molecules, 2022)

Tests used:
[1] = test system: Hep G-2; assay: MTT cytotoxicity assay, liver cancer cell line; type: cell-based, human
Experimental: (§1) HepG-2, and DU-145 human tumor cell lines were grown in DMEM medium supplemented with Glutamax-I and glucose. A pseudo-normal human embryonic liver cell line (L02) was used to study the cytotoxicity of the synthesized compounds. The cell culture medium was supplemented with fetal calf serum (10% v/v), penicillin (100 IU/mL), and streptomycin (100 µg/mL), then preserved at 37 °C.
(§2) A spectrophotometric MTT reagent assay was employed to assess the cytotoxic activity of the synthesized compounds. In brief, the grown cells (approx. 5 × 10^3 count) were placed in each well of a 96-well plate and 100 µL of the culture medium was added along with the synthesized compounds (1–100 µmol/L). The well plate was subjected to incubation for 72 h; later, 10 µL of MTT (5 mg/mL) was added to each well. The well plate was further incubated for 4 h at 37 °C. The resulting insoluble formazan was dissolved by adding sodium dodecyl sulfate (100 µL, 10%) to each well and continuing incubation for an additional 12 h. Later, the 96-well plate was used to measure the absorbance at the 540 nm and 630 nm reference wavelengths using the spectrophotometer. The blank absorbance was treated as a control and the IC50 values were determined by a non-linear regression model with the help of normalized dose-response data acquired via MTT assay.

[2] = test system: DU-145; assay: MTT cytotoxicity assay, prostate cancer cell line; type: cell-based, human
Experimental: as §1, §2

[3] = test system: L02; assay: MTT cytotoxicity assay, embryonic liver cell line (selective toxicity); type: cell-based; conditions: for inhibition at 100 µM: L02, human embryonic liver cell line
Experimental: as §1, §2

[4] = molecular target: GSK-3β (Homo sapiens, UniProt P49841); assay: GSK-3β inhibitory assay (Kinase-Glo luminescence); conditions: for inhibition at 50 µM: read-out: % of Inhibition at 50 µM, 50 µM, triplicate
GSK-3β, sequence (P49841 whole entry): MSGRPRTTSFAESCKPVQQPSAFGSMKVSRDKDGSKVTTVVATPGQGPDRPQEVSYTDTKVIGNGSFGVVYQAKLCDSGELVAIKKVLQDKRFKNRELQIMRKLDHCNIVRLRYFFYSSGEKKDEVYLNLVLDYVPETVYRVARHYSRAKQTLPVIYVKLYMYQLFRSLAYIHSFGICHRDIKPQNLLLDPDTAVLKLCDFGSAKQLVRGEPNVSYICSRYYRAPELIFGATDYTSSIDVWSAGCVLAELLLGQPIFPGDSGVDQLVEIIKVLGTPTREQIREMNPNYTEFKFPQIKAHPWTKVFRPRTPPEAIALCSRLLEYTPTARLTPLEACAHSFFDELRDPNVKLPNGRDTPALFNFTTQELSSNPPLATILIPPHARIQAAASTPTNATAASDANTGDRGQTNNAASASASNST
Experimental: Briefly, the assay procedure was as follows. […] The activity was determined by the difference between total and consumed ATP. The inhibition activity was determined using the maximal activity in the absence of the inhibitor and the maximal inhibition in the presence of the reference drug. IC50 values were determined using the GraphPad Prism 4.0 tool (GraphPad Software Inc., San Diego, CA, USA).

| melting point | inhibition at 50 µM [4] | SMILES | IC50 ([1]; Homo sapiens, HepG2, 72 h) | IC50 ([2]; Homo sapiens, DU-145, 72 h) | inhibition at 100 µM [3] | IC50 ([1]; 72 h) | IC50 ([2]; 72 h) | % Inhibition (100 µM) L02 ([3]; human embryonic liver cell line) | % of Inhibition at 50 µM [4] |
| --- | --- | --- | --- | --- | --- | --- | --- | --- | --- |
| 244 to 246 °C | 66.6 ± 2.51% | Cc1ccc2c(c1)N=C(c1cc(C)cc(Br)c1O)CC(c1ccc(N(C)C)cc1)S2 (stereo not drawn) [2e, 2-bromo-6-(2-(4-(dimethylamino)phenyl)-7-methyl-2,3-dihydrobenzo[b][1,4]thiazepine-4-yl)-4-methylphenol] | 6.87 ± 0.15 µM | 37.52 ± 0.27 µM | 52.2 ± 1.42% |  |  |  |  |
| 244 to 246 °C | 89.7 ± 1.65% | Cc1ccc2c(c1)N=C(c1cc(Cl)cc(Br)c1O)CC(c1ccc(N(C)C)cc1)S2 (stereo not drawn) [2f, 2-bromo-4-chloro-6-(2-(4-(dimethylamino)phenyl)-7-methyl-2,3-dihydrobenzo [b][1,4]thiazepin-4-yl)phenol] | 4.38 ± 0.11 µM | 24.58 ± 0.13 µM | 28.4 ± 1.18% |  |  |  |  |
| 244 to 246 °C | 61.9 ± 3.47% | Cc1ccc2c(c1)N=C(c1cc(Br)cc(I)c1O)CC(c1ccc(N(C)C)cc1)S2 (stereo not drawn) [2h, 4-bromo-2-(2-(4-(dimethylamino)phenyl)-7-methyl-2,3-dihydrobenzo[b][1,4]thiazepin-4-yl)-6-iodophenol] | 8.56 ± 0.14 µM | 36.8 ± 0.18 µM | 46.1 ± 1.05% |  |  |  |  |

The next lines start with the compound.

| SMILES | melting point | inhibition at 50 µM [4] | IC50 ([1]; Homo sapiens, HepG2, 72 h) | IC50 ([2]; Homo sapiens, DU-145, 72 h) | inhibition at 100 µM [3] | IC50 ([1]; 72 h) | IC50 ([2]; 72 h) | % Inhibition (100 µM) L02 ([3]; human embryonic liver cell line) | % of Inhibition at 50 µM [4] |
| --- | --- | --- | --- | --- | --- | --- | --- | --- | --- |
| Cc1ccc2c(c1)N=C(c1cc(I)cc(I)c1O)CC(c1ccc(N(C)C)cc1)S2 (stereo not drawn) [2a, 2-(2-(4-(dimethylamino)phenyl)-7-methyl-2,3-dihydrobenzo[b][1,4]thiazepin-4-yl)-4,6-diiodophenol] | 230 to 232 °C | 62.4 ± 2.21% | 7.52 ± 0.13 µM | 32.74 ± 0.13 µM | 28.2 ± 1.68% |  |  |  |  |
| Cc1ccc2c(c1)N=C(c1cc(C)cc(I)c1O)CC(c1ccc(N(C)C)cc1)S2 (stereo not drawn) [2b, 2-(2-(4-(dimethylamino)phenyl)-7-methyl-2,3-dihydrobenzo[b][1,4]thiazepin-4-yl)-6-iodo-4-methylphenol] | 218 to 220 °C | 60.7 ± 2.85% | 8.26 ± 0.26 µM | 41.34 ± 0.12 µM | 19.6 ± 0.97% |  |  |  |  |
| Cc1ccc2c(c1)N=C(c1cc(Cl)cc(Cl)c1O)CC(c1ccc(N(C)C)cc1)S2 (stereo not drawn) [2c, 2,4-dichloro-6-(2-(4-(dimethylamino)phenyl)-7-methyl-2,3-dihydrobenzo[b][1,4]thiazepin-4-yl)phenol] | 222 to 224 °C | > 90% | 3.29 ± 0.15 µM | 20.45 ± 0.19 µM | 19.3 ± 1.25% |  |  |  |  |
| Cc1ccc2c(c1)N=C(c1cc(Cl)cc(I)c1O)CC(c1ccc(N(C)C)cc1)S2 (stereo not drawn) [2d, 4-chloro-2-(2-(4-(dimethylamino)phenyl)-7-methyl-2,3-dihydrobenzo[b][1,4]thiazepine-4-yl)-6-iodophenol] | 244 to 246 °C | 61.1 ± 1.98% | 7.89 ± 0.22 µM | 36.17 ± 0.14 µM | 31.4 ± 1.14% |  |  |  |  |
| Cc1ccc2c(c1)N=C(c1cc(Br)cc(Br)c1O)CC(c1ccc(N(C)C)cc1)S2 (stereo not drawn) [2g, 2,4-dibromo-6-(2-(4-(dimethylamino)phenyl)-7-methyl-2,3-dihydrobenzo[b][1,4]hiazepine-4-yl)phenol] |  |  |  |  |  | 8.32 ± 0.16 µM | 28.53 ± 0.14 µM | 15.56 ± 1.29% | 87.62 ± 2.54% |
| CN(Cc1cnc2nc(N)nc(N)c2n1)c1ccc(C(=O)N[C@@H](CCC(=O)O)C(=O)O)cc1 [Methotrexate, reference compound] |  |  | 4.68 ± 0.17 µM | 21.96 ± 0.15 µM | 78.2 ± 1.86% |  |  |  |  |
